Reference: patent US8278066B2, “Truncated somatostatin receptors” (Board of Regents, The University of Texas System, priority 2001, dated 2012)

Legend:
[1] = target: full length SSTR2A fusion protein (HT1080 clones 21, 3, 11) (Homo sapiens, UniProt P30874)
[2] = target: intracellular tail minus SSTR2A fusion protein (HT1080 clones tail-1, tail-4) (Homo sapiens, UniProt P30874)
Sequence of intracellular tail minus SSTR2A fusion protein (HT1080 clones tail-1, tail-4) (P30874 1-314): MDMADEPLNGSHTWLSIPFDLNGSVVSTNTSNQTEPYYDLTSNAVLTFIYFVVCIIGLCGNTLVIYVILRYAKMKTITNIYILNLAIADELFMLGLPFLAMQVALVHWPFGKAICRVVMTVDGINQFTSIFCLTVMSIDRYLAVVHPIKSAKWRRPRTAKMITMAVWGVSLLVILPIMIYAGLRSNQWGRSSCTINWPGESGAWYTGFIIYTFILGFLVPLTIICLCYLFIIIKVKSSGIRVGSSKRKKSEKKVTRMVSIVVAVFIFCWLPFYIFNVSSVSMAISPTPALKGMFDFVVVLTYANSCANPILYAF

Sequence of full length SSTR2A fusion protein (HT1080 clones 21, 3, 11) (P30874 whole entry, the tested form may be a part): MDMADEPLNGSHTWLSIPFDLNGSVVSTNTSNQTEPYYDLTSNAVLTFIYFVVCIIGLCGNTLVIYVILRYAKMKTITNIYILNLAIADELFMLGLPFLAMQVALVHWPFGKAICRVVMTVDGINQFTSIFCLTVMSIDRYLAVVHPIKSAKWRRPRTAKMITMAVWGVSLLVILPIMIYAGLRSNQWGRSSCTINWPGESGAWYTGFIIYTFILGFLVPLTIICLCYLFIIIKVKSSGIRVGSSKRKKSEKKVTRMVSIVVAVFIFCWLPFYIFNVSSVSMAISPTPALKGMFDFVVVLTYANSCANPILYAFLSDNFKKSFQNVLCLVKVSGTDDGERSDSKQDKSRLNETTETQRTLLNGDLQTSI

^111In-octreotide
Specific binding, order among clones [1]: greater for clone 21 than 3 than 11 | counts per minute bound [1]: more counts per minute without the addition of cold somastotin-28 then with its addition | counts per minute bound [2]: more counts per minute without the addition of cold somastotin-28 then with its addition
